PMC11755562, “Peptide Inhibitor Assay for Allocating Functionally Important Accessible Sites Throughout a Protein Chain: Restriction Endonuclease EcoRI as a Model Protein System” (BioTech, 2024)
Entries after “also recorded” stand apart in the source; their conditions may differ.

Target: T1, EcoRI (Escherichia coli, UniProt P00642)
T1 construct: The first M is removed after translation in this protein; purchased New England Biolabs
Assay: Peptide inhibitor assay (PIA): EcoRI digestion of pCRII-TOPO-OR23 plasmid, fluorescence intensity of the excised OR23 band on agarose gel
Format: biochemical
Settings: for inhibitory effect compared with the original peptide (in words) / level of inhibitory effect on EcoRI (in words) / significance of inhibition of EcoRI activity versus no peptide / relative fluorescence intensity of excised OR23 fragment: 3 h; for inhibitory effect compared with the original peptide (in words): EcoRI:peptide 1:500, randomized peptides by Student's t-test versus each endogenous BP; for inhibitory effect compared with the original peptide (in words) / level of inhibitory effect on EcoRI (in words) / inhibitory effect, fluorescence intensity versus incubation time (in words) / significance of inhibition of EcoRI activity versus no peptide / concentration dependence of the inhibitory effect: n = 3; for level of inhibitory effect on EcoRI (in words): EcoRI:peptide 1:500, relative fluorescence intensity; for inhibitory effect, fluorescence intensity versus incubation time (in words): time course until 5 h, EcoRI:peptide 1:500, compared with no peptide; for significance of inhibition of EcoRI activity versus no peptide: EcoRI:peptide 1:500, Dunnett's test versus no peptide; for relative fluorescence intensity of excised OR23 fragment: relative to no peptide, EcoRI:peptide 1:500 molar ratio, 37 °C, 0.015 mM Mg2+, mean of n = 3; for concentration dependence of the inhibitory effect: ×5 to ×500 molar equivalence to EcoRI, fixed time point 3 h
Description: Peptide synthesis was performed by GenScript Japan (Tokyo, Japan). All peptides were confirmed to be more than 75% pure via high-performance liquid chromatography (HPLC) and to have theoretical molecular weights via mass spectrometry (MS). The peptides were dissolved in DMSO (dimethyl sulfoxide) and were prepared at 5.59 × 10^−9 mol/μL (5.59 mM). When 1.0 μL of this peptide mixture was mixed in a tube for the inhibition of EcoRI catalytic activity, the molar ratio of EcoRI to peptide was 1:500. This concentration in molar equivalence was used throughout this study unless otherwise noted.
Purified and concentrated EcoRI (20,000 U/mL, approximately 338 μg/mL, 1.12 × 10^−[…]) was obtained from New England Biolabs (Ipswich, MA, USA). To quantify and visualize the inhibitory effects of the peptides, the enzymatic reaction conditions were set so that at least three hours of incubation were required to completely digest the substrate plasmid DNA with EcoRI. To do so, we used a low Mg^2+ concentration (0.015 mM) in the reaction mixture in contrast to the optimum concentration of Mg^2+ for EcoRI (10 mM).
All master solutions and samples were prepared on ice. A single reaction tube contained the following common ingredients: autoclaved DNase-free RNase-free deionized H2O (12.5 μL) (Nippon Gene), 10× NE Buffer Mg^2+-free (2.0 μL), pCRII-TOPO-OR23 plasmid DNA (2.0 μL of 40 ng/μL solution), MgCl2 (1.5 μL of 0.20 mM solution), and EcoRI (1.0 μL). A master solution containing these ingredients without DMSO or a peptide was first prepared for the number of sample tubes. The master solution was aliquoted into 1.5 mL spin tubes (19.0 μL per tube). Then, 1.0 μL of DMSO or a peptide sample was added, and the mixture was incubated at 37 °C. A negative control with DMSO but without a peptide (“no peptide” control) was run in every assay. When the digestion efficiency was compared, another negative control with autoclaved DNase-free RNase-free H2O without EcoRI was prepared. After the reaction, the samples were quickly cooled on ice for ten minutes and then stored at −80 °C until agarose gel electrophoresis. The above protocol was conducted for all peptides (including BP19.5, BP19.5N, and BP19.5C) used in the present study unless otherwise noted.
To quantify EcoRI activity after incubation of a reaction mixture, digested pCRII-TOPO-OR23 plasmid DNA was examined via agarose gel electrophoresis. We first prepared a 25 mL solution of 1.0% agarose (Nippon Gene) in TAE (Tris-acetate-EDTA) buffer (Promega, Madison, WI, USA) to produce an agarose gel. An ethidium bromide solution (0.5 μL of 10 mg/mL) (Promega) was added before gelation. After incubation with EcoRI, the fluorescence intensity of the band of the excised OR23 fragment was measured via an ImageQuant LAS4000 (GE Healthcare Japan, Tokyo, Japan) with the following conditions: “Exposure Type”: Precision; “Exposure Time”: Manual 1/8 sec; “Sensitivity/Resolution”: Standard; and “Fluorescent Method”: Epi illumination; EtBr; UV (Trans UV) light; 6-5DF50 Filter; and F2.8 Iris.
For statistical analyses, Student’s t-test (unpaired and bi-sided), Dunnett’s test, and Pearson correlation analysis were performed via Microsoft Excel (Office 365) and JSTAT (Yokohama, Japan). The Dunnett’s test was performed for each experimental group that was examined simultaneously in the laboratory, in comparison to the “no peptide” control group that was examined simultaneously. The repeated measure mode of the Dunnett’s test was used on the assumption that there was no interaction between samples.

T1 sequence (P00642 2-277): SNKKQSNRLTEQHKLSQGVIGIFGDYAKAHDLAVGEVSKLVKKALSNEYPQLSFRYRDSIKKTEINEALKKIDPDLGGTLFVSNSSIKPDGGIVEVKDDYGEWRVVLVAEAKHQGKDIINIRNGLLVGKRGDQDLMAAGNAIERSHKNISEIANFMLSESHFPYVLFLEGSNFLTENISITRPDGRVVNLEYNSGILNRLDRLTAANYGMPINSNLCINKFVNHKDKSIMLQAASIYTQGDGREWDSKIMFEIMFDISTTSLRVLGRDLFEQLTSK

## EIANFM [BP14C]
  inhibitory effect compared with the original peptide (in words): as inhibitory as the original BP14

## EWRVVL [BP10N]
  level of inhibitory effect on EcoRI (in words): noninhibitory

## FVSNSSIKPDGG [BP8]
  level of inhibitory effect on EcoRI (in words): noninhibitory
  inhibitory effect, fluorescence intensity versus incubation time (in words): relatively low inhibitory effects

## EWRVVLVAEAKHQG [BP10]
  level of inhibitory effect on EcoRI (in words): not very inhibitory

## AAGNAI [BP13M]
  level of inhibitory effect on EcoRI (in words): noninhibitory

## EALDIAMGRNSA [BP13R1]
  inhibitory effect compared with the original peptide (in words): significantly more inhibitory

## IKKTEI [BP6N]
  inhibitory effect compared with the original peptide (in words): as inhibitory as the original BP6

## VEGQELAVKAHRWV [BP10R1]
  inhibitory effect compared with the original peptide (in words): significantly more inhibitory

## AVGEVSKLVKKALS [BP4]
  significance of inhibition of EcoRI activity versus no peptide: significantly inhibitory

## VNHKDKSIMLQA [BP20.5]
  level of inhibitory effect on EcoRI (in words): did not show high inhibition

## AGRKQEVHAVWVEL [BP10R2]
  inhibitory effect compared with the original peptide (in words): as inhibitory as the original peptides

## LSQGVIGIFGDY [BP2.5]
  level of inhibitory effect on EcoRI (in words): notable
  relative fluorescence intensity of excised OR23 fragment: less than 0.3

## NAIERSHKNIS [BP13.5]
  level of inhibitory effect on EcoRI (in words): not very inhibitory

## EGSNFLTENISI [BP16]
  level of inhibitory effect on EcoRI (in words): highly inhibitory; also recorded: most effective
  relative fluorescence intensity of excised OR23 fragment: less than 0.3

## EQHKLSQGVIGI [BP2]
  significance of inhibition of EcoRI activity versus no peptide: significantly inhibitory
  level of inhibitory effect on EcoRI (in words): highly inhibitory; also recorded: most effective
  relative fluorescence intensity of excised OR23 fragment: less than 0.3

## LAMRGASIADEN [BP13R2]
  inhibitory effect compared with the original peptide (in words): significantly less inhibitory

## NSGILNRLDRLTA [BP18]
  level of inhibitory effect on EcoRI (in words): especially notable; also recorded: most effective
  relative fluorescence intensity of excised OR23 fragment: less than 0.3

## IKKTEINEALKKID [BP6]
  significance of inhibition of EcoRI activity versus no peptide: significantly inhibited EcoRI activity
  level of inhibitory effect on EcoRI (in words): especially notable

## STTSLRVLGRDLFE [BP24]
  level of inhibitory effect on EcoRI (in words): did not work well

## GIVEVK [BP9M]
  inhibitory effect compared with the original peptide (in words): more inhibitory than the original

## DLMAAGNAIERS [BP13]
  level of inhibitory effect on EcoRI (in words): not very inhibitory

## NISEIA [BP14M]
  level of inhibitory effect on EcoRI (in words): noninhibitory

## SHKNISEIANFM [BP14]
  significance of inhibition of EcoRI activity versus no peptide: significantly inhibited EcoRI activity
  level of inhibitory effect on EcoRI (in words): especially notable; also recorded: moderate inhibitory effect
  inhibitory effect, fluorescence intensity versus incubation time (in words): relatively high inhibitory effects
  concentration dependence of the inhibitory effect: concentration dependent

## FRYRDSIKKTEI [BP5.5]
  level of inhibitory effect on EcoRI (in words): least inhibitory; also recorded: noninhibitory

## LDRLTAANYGM [BP18.5]
  level of inhibitory effect on EcoRI (in words): noninhibitory

## KPDGGIVEVKDDYG [BP9]
  level of inhibitory effect on EcoRI (in words): not very inhibitory

## IDPDLG [BP7N]
  level of inhibitory effect on EcoRI (in words): noninhibitory

## NEYPQLAFRYRDS [BP5]
  significance of inhibition of EcoRI activity versus no peptide: significantly inhibitory
  level of inhibitory effect on EcoRI (in words): highly inhibitory; also recorded: most effective
  relative fluorescence intensity of excised OR23 fragment: less than 0.3

## KRGDQDLMAAG [BP12.5]
  level of inhibitory effect on EcoRI (in words): not very inhibitory

## NGLLVG [BP12N]
  inhibitory effect compared with the original peptide (in words): more inhibitory than the original

## YVLFLE [BP15C]
  level of inhibitory effect on EcoRI (in words): most effective
  inhibitory effect compared with the original peptide (in words): more inhibitory than the original BP15
  relative fluorescence intensity of excised OR23 fragment: less than 0.3

## EAKHQGKDIIN [BP10.5]
  level of inhibitory effect on EcoRI (in words): not very inhibitory

## VKDDYG [BP9C]
  level of inhibitory effect on EcoRI (in words): noninhibitory

## LGRDLFEQLTSK [BP25]
  level of inhibitory effect on EcoRI (in words): especially notable; also recorded: most inhibitory; also recorded: most effective
  relative fluorescence intensity of excised OR23 fragment: less than 0.3

## RNGLLVGKRGDQD [BP12]
  significance of inhibition of EcoRI activity versus no peptide: significantly inhibited EcoRI activity

## SNKKQSNRLTEQHK [BP1]
  significance of inhibition of EcoRI activity versus no peptide: significantly inhibitory
  level of inhibitory effect on EcoRI (in words): reasonably inhibitory

## DGLTPFSDVLGI [BP7R2]
  inhibitory effect compared with the original peptide (in words): significantly less inhibitory

## VIGIFGDYAKAHDL [BP3]
  significance of inhibition of EcoRI activity versus no peptide: significantly inhibitory
  level of inhibitory effect on EcoRI (in words): highly inhibitory; also recorded: most effective
  relative fluorescence intensity of excised OR23 fragment: less than 0.3

## GREWDSKIMFEIMF [BP22]
  significance of inhibition of EcoRI activity versus no peptide: significantly inhibited EcoRI activity
  level of inhibitory effect on EcoRI (in words): especially notable
  inhibitory effect, fluorescence intensity versus incubation time (in words): relatively high inhibitory effects
  concentration dependence of the inhibitory effect: concentration dependent

## TRPDGRVVNLEY [BP17]
  level of inhibitory effect on EcoRI (in words): not very inhibitory

## SHKNIS [BP14N]
  level of inhibitory effect on EcoRI (in words): noninhibitory

## SSIKPDGGIVE [BP8.5]
  level of inhibitory effect on EcoRI (in words): not very inhibitory

## VGLILSTGDFDP [BP7R1]
  inhibitory effect compared with the original peptide (in words): as inhibitory as the original peptides

## VVNLEYNSGILN [BP17.5]
  level of inhibitory effect on EcoRI (in words): not very inhibitory
